Experimental data from US20210386689A1, “METHODS OF TREATING CENTRAL NERVOUS SYSTEM DISORDERS” (Sunovion Pharmaceuticals Inc., priority 2018, published 2021).
pKi: −log10 of the molar value.

Legend:
CYP2B6 = molecular target: T1, CYP2B6 (Homo sapiens, UniProt P20813); test: Inhibition of CYP2B6 activity in human liver microsomes (direct and time-dependent); format: in vitro ADME
T1 construct: measuring the activity of CYP2B6 in human liver microsomes; from tissue; host or cells: human liver microsomes
T1 sequence (P20813 1-491): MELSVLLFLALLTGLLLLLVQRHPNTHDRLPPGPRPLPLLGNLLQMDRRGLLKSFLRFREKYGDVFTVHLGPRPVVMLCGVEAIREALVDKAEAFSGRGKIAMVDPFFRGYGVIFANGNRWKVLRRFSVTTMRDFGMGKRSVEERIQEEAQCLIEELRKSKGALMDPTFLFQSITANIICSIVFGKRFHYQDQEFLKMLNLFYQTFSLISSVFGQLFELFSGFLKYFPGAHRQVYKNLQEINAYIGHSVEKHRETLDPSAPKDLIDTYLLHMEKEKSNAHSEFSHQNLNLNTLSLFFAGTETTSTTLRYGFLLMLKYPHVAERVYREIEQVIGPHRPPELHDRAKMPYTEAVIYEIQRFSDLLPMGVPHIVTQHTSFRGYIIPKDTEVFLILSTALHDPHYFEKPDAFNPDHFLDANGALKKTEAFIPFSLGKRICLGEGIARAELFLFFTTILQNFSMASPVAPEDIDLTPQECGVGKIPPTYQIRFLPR
Protocol: The inhibitory potency of dasotraline was determined in vitro by measuring the activity of CYP2B6 in human liver microsomes in the presence and absence of dasotraline. […] Furthermore, dasotraline was determined to be a time-dependent inhibitor of CYP2B6 with an apparent inactivation constant of 0.12 μM and a maximal inactivation rate constant of 0.15 min-1. Based on the Food and Drug Administration Draft Guidance: Drug Interaction Studies (February 2012) and the prediction using physiologically-based PK modeling and simulation there is a potential for dasotraline to inhibit the metabolism pathway of CYP2B6 substrates through time-dependent inhibition. Therefore, the effect of dasotraline on the PK of a CYP2B6 substrate (ie, efavirenz) was studied clinically.

clinical [1] = details: human, in vivo
Protocol: Eight clinical studies—including single dose pharmacokinetic (PK), multiple dose PK, efficacy, safety, and tolerability, human abuse liability, absorption, metabolism, and excretion, and safety, efficacy, and tolerability in adults with attention-deficit hyperactivity disorder—were completed with dasotraline. In those studies, single doses ranging from 0.2 mg to 36 mg and multiple doses from 0.5 mg/day to 8 mg/day for 21 to 56 days were evaluated. Dasotraline was slowly absorbed into the systemic circulation, reaching time of maximum observed plasma concentration (tmax) approximately 10 to 12 hours after single administration of doses ranging from 0.2 to 36 mg. The change in maximum observed plasma concentration (Cmax) with dose was nearly dose proportional for the same doses. […] Dasotraline is extensively metabolized by oxidation and subsequent phase II metabolism. CYP2B6 oxidizes dasotraline to “dasotraline oxime”: […]

clinical [2] = details: human, in vivo; remark: listed apart in the source
Protocol: A randomized, 2-way crossover study to evaluate the effect of dasotraline on the pharmacokinetics (PK) of efavirenz, a sensitive cytochrome P450 2B6 (CYP2B6) substrate, and to assess the safety and tolerability of a single dose of dasotraline given concurrently with efavirenz was conducted.
Methodology: The study enrolled 29 healthy, non-smoking male and female subjects. All subjects were randomized to one of two treatment sequences: (A) Single doses of placebo and 400 mg efavirenz followed 28 days later by single doses of 24 mg dasotraline and 400 mg efavirenz; or (B) Single doses of 24 mg dasotraline and 400 mg efavirenz followed 28 days later by single doses of placebo and 400 mg efavirenz. Dasotraline and placebo were administered 6 hours prior to the planned dosing time of efavirenz. A screening period of approximately 4 weeks was followed by 2 treatment periods, each of which included approximately 78 hours in-clinic confinement followed by 3 outpatient follow-up visits. Dose administration occurred on Day 1 and Day 29. During the first treatment period, subjects were admitted to the clinic on Day −1, the day before first study drug administration (Day 1), and remained in clinic until discharge on Day 3. Subjects returned to the clinic for 3 subsequent visits (Days 5, 7, and 14) for PK sample collection. Following a washout period (consisting of 28 non-dosing days), subjects returned and were readmitted to the clinic for the second treatment period on Day 28, the day before the second study drug administration (Day 29), and remained in clinic until discharge on Day 31. Subjects returned to the clinic for 3 subsequent visits (Days 33, 35, and 42) for PK sample collection. Day 42 was the End of Study visit.
Evaluation: Blood for serial PK sampling was obtained from all subjects prior to efavirenz administration (pre-dose) and at specified time points after efavirenz administration on Days 1 and 29 for each treatment sequence. The recorded times for dasotraline PK plasma sample collections were relative to efavirenz dosing time. The primary parameters for efavirenz analysis were maximum observed plasma concentration (Cmax), time of maximum observed plasma concentration (tmax), area under the concentration-time curve (AUC) from time 0 to time t (AUC0-t), AUC from time 0 to the time of last measurable concentration (AUC0-last), AUC from time 0 extrapolated to infinity (AUC0-inf), terminal elimination rate constant (λZ), apparent terminal elimination half-life (t1/2), apparent total clearance (CL/F), and apparent volume of distribution during the terminal elimination phase (Vz/F). The primary parameters for dasotraline analysis were Cmax, AUC0-last, AUC0-t, and AUC0-inf.
Statistical Methods: All analyses involving PK data (e.g., plasma concentrations, derived PK parameters, assessment of drug-drug interaction) were performed on the PK population. For plasma concentrations of dasotraline and efavirenz, descriptive statistics (e.g., number, arithmetic mean, arithmetic standard deviation, minimum, median, maximum, 25th percentile, 75th percentile, geometric mean, and geometric coefficient of variation) were listed and summarized by time point by treatment for the PK population. Mean plasma concentration-time profiles were plotted by treatment on linear and semi-logarithmic scales. Individual subject linear and semi-logarithmic concentration-time plots, with respective treatments presented together, were included in the appendices.
To evaluate the effect of dasotraline on the PK of efavirenz, a mixed effect analysis of variance (ANOVA) was applied for the primary endpoint on natural log-transformed Cmax, AUC0-last, AUC0-t, and AUC0-inf of efavirenz. The model included treatment, sequence, and period as fixed effects and subject nested within sequence as a random effect. Only subjects who completed both treatment periods were included in the overall ANOVA to allow for an intra-subject comparison to be conducted. […]

With N[C@@H]1CC[C@@H](c2ccc(Cl)c(Cl)c2)c2ccccc21 [Dasotraline, (1R,4S)-4-(3,4-dichlorophenyl)-1,2,3,4-tetrahydronaphthalen-1-amine] the pKi (CYP2B6; direct competitive inhibition, read-out: inhibition constant) was 6.66, the apparent inactivation constant (CYP2B6; time-dependent inhibition) was 0.12 µM and the “maximal inactivation rate constant” value (CYP2B6; time-dependent inhibition) was 0.15 min⁻¹. For the same molecule, the Tmax (clinical [1]) was 10 to 12 h and the half-life (clinical [1]) was 47.1 to 77 h.
Molecule O=C1Nc2ccc(Cl)cc2[C@@](C#CC2CC2)(C(F)(F)F)O1 [Efavirenz] has a Vd/F (clinical [2]; both sexes) of 525 L, a Cmax (clinical [2]; both sexes, 400 mg) of 1560 ng/mL and a Vd/F (clinical [2]; both sexes, 400 mg) of 759 L. The AUC(0-t) (clinical [2]; both sexes, 400 mg, AUC0-24) was 18200 ng·h/mL, the AUC(0-inf) (clinical [2]; both sexes, 400 mg, AUC0-inf) was 92000 ng·h/mL and the AUC(0-t) (clinical [2]; both sexes, 400 mg, AUC0-last) was 80400 ng·h/mL. The half-life (clinical [2]; both sexes, 400 mg, t1/2) was 143 h, the Tmax (clinical [2]; both sexes, 400 mg, tmax, median) was 3.05 h and the AUC(0-t) (clinical [2]; both sexes, Mean AUC from time 0 to 24 hours post-dose (AUC0-24)) was 19000 ng·h/mL. It also gave a half-life (clinical [2]; both sexes, Mean terminal half-life) of 143 h, a Tmax (clinical [2]; both sexes, Median tmax) of 4 h and an AUC(0-inf) (clinical [2]; both sexes, mean AUC0-inf) of 87900 ng·h/mL. It also gave an AUC(0-t) (clinical [2]; both sexes, mean AUC0-last) of 112000 ng·h/mL, a half-life (clinical [2]; both sexes, t1/2) of 161 h and a Tmax (clinical [2]; both sexes, tmax, median) of 4 h. For the same molecule, the “Mean AUC from time 0 to 24 hours post-dose (AUC0-24)” value (clinical [2]; both) was 17,700 h*ng/mL, the Mean terminal half-life (clinical [2]; both) was 161 h and the Median tmax (clinical [2]; both) was “approximately 3 hours”. The “geometric LS mean ratio for AUC0-24” value (clinical [2]; both) was 107.5%, the “geometric LS mean ratio for AUC0-inf” value (clinical [2]; both) was 153.5% and the “geometric LS mean ratio for AUC0-last” value (clinical [2]; both) was 143.1%. For the same molecule, the “geometric LS mean ratio for Cmax” value (clinical [2]; both) was 98.5%, the “mean AUC0-inf” value (clinical [2]; both) was 135,000 h*ng/mL and the “mean AUC0-last” value (clinical [2]; both) was 78,200 h*ng/mL.
